Measurements taken from BindingDB's records for doi:10.7270/Q20P0XHD (Burnham Center For Chemical Genomics, 2011).

Biological target: T1, C-C chemokine receptor type 6 (Homo sapiens, UniProt P51684)
T1 sequence (P51684 whole entry): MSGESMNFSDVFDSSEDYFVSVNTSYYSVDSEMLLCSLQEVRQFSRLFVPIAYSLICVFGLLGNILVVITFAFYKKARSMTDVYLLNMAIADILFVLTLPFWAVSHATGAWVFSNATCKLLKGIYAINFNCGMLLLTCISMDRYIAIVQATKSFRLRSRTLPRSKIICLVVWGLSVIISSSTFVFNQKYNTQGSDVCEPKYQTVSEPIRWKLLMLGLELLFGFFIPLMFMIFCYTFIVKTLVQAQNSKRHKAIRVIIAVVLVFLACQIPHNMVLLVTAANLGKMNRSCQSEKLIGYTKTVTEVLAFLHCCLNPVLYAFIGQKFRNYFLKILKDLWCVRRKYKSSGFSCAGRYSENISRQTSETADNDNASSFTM
Experiment: CCR6 receptor antagonists, dose response, cell-based, luminescent beta-arrestin readout (AID 504728)

`COc1cccc(CN=Nc2nc(Nc3ccccc3)nc(-n3nc(C)cc3C)n2)c1O` [(6E)-6-[[2-[4-(3,5-dimethylpyrazol-1-yl)-6-phenylazanyl-1,3,5-triazin-2-yl]hydrazinyl]methylidene]-2-methoxy-cyclohexa-2,4-dien-1-one] gave an IC50 of over 66.6 µM.

In the case of `O=C1C([N+](=O)[O-])=CC=CC1CN=Nc1ccc2ccccc2n1` (centres undefined) [(6E)-2-nitro-6-[(2-quinolin-2-ylhydrazinyl)methylidene]cyclohexa-2,4-dien-1-one], the IC50 is reported as over 66.6 µM.

`O=C1Nc2ccc([N+](=O)[O-])cc2/C1=N/NC(=O)c1cc(-c2ccccc2Cl)nc2ccccc12` [2-(2-chlorophenyl)-N'-(2-keto-5-nitro-indol-3-yl)cinchoninohydrazide] was tested, and the IC50 was over 66.6 µM.

Work on `O=C1C([N+](=O)[O-])=CC(Cl)=CC1CN=Nc1ccccn1` (centres undefined) [MLS000539830] yielded an IC50 of over 66.6 µM.

For `CC(NO)C(=O)C(=CN1CCCCC1)CN1CCCCC1` (centres undefined), the IC50 was over 66.6 µM.

`CC(C)(C)C1CCC(=NNC(=S)NCc2ccccc2)CC1` (centres undefined) [SMR000377499] gave an IC50 of over 66.6 µM.

Work on `Cc1cc(N=NCc2ccc(F)cc2)nc(-n2nc(C)cc2C)n1` [SMR000426945] yielded an IC50 of over 66.6 µM.

Work on `COC1=CC=CC(CN=Nc2nc(Nc3ccc([N+](=O)[O-])cc3)nc(N3CCCC3)n2)C1=O` (centres undefined) [2-hydroxy-3-methoxybenzaldehyde {4-[(4-nitrophenyl)amino]-6-pyrrolidin-1-yl-1,3,5-triazin-2-yl}hydrazone] yielded an IC50 of 1.64 µM.

For `O=C1C=CC([N+](=O)[O-])=CC1CN=Nc1ccccn1` (centres undefined) [MLS000585015], the IC50 was over 66.6 µM.

`N#CC(=C1C=CC(N=O)C(Cl)=C1)c1ccc(Cl)cc1` (centres undefined) [SMR001570423] gave an IC50 of over 66.6 µM.

In the case of `O=Nc1c(C2C(=O)Nc3cc(Br)ccc32)[nH]c2ccccc12` (centres undefined) [6-bromoindirubin-3-oxime], the IC50 is reported as over 66.6 µM.

`CN(C)c1nc(N=NCc2ccccc2O)nc(Nc2ccc(F)cc2)n1` [(6E)-6-[[2-[4-(dimethylamino)-6-(4-fluoroanilino)-1,3,5-triazin-2-yl]hydrazinyl]methylidene]cyclohexa-2,4-dien-1-one] gave an IC50 of over 66.6 µM.

`CN1C(=O)C(C2CC(c3ccc(Cl)cc3)N=N2)C(=O)N(C)C1=O` (centres undefined) [SMR000439471] was tested, and the IC50 was 14.9 µM.

Work on `CCCC1CCC(=NNC(=S)NCCc2ccccc2)CC1` (centres undefined) [SMR000347544] yielded an IC50 of over 66.6 µM.

`O=C1C(/C=N/c2ccc(N3CCOCC3)cc2)=CC(Cc2ccccc2)C=C1[N+](=O)[O-]` (centres undefined) [SMR000231104] was tested, and the IC50 was over 66.6 µM.

`C/C=C(\C)C(=O)OC1[C@H](OC(C)=O)C2(CO)C(CC1(C)C)C1=CCC3C4(C)CCC(O[C@@H]5O[C@H](C(=O)O)[C@@H](O[C@@H]6O[C@H](CO)[C@@H](O)[C@H](O)[C@H]6O)[C@H](O)[C@H]5O[C@H]5O[C@H](CO)[C@@H](O)[C@H](O)[C@H]5O)[C@](C)(CO)C4CCC3(C)[C@]1(C)C[C@H]2O` (some centres undefined) [MLS002695979] gave an IC50 of 16.4 µM.

`C=CCSC(N)=NN=CC1C=C(Br)C=C([N+](=O)[O-])C1=O` (centres undefined) [N''-[[(E)-(3-bromo-5-nitro-6-oxo-1-cyclohexa-2,4-dienylidene)methyl]amino]carbamimidothioic acid prop-2-enyl ester] showed an IC50 of over 66.6 µM.

Work on `Cc1cc(C)nc(NNC=C2C(=O)CC(c3ccc(F)cc3)CC2=O)n1` (centres undefined) yielded an IC50 of over 66.6 µM.

Work on `COc1ccc(-n2c(O)c(CN=Nc3nc(C)cc(C)n3)c3ccccc3c2=O)cc1OC` [SMR000385482] yielded an IC50 of 0.594 µM.
